The values below are quoted from earlier work in patent publication US20140220152A1, “Compositions and Methods for Detecting, Treating, or Preventing Reductive Stress” (University of Utah Research Foundation, priority 2007, published 2014).

SMILES strings stand for the structures.

Data set [1] addresses mammalian glucose-6-phosphate dehydrogenase (G6PDH) (Homo sapiens, UniProt P11413).
For data set [2] the following is noted: humans taking repeated doses of 250 mg disulfuram daily.
The conditions of data set [3]: rodents.

mammalian glucose-6-phosphate dehydrogenase (G6PDH), sequence (P11413 whole entry): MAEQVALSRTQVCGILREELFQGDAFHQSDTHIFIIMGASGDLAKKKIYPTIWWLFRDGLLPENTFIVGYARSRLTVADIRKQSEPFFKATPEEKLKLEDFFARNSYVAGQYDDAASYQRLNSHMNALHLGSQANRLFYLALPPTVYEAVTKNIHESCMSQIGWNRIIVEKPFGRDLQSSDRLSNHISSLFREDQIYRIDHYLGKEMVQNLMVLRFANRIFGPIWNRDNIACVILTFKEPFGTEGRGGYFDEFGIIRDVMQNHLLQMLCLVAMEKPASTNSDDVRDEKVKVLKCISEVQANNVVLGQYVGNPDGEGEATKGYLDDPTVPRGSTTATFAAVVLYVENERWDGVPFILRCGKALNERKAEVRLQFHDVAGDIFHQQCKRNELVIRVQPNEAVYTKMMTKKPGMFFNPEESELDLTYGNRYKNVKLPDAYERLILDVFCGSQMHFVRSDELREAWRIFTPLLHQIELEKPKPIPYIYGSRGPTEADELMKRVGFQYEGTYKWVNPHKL

For `C[C@]12CC[C@H](O)CC1=CC[C@@H]1[C@@H]2CC[C@]2(C)C(=O)CC[C@@H]12` [DHEA, Dehydroepiandrosterone], in data set [1], the “inhibition of mammalian G6PDH” value is on record as “potent non-competitive inhibitor”.

The term LD50 denotes the dose at which mortality reaches 50%. Take `CCN(CC)C(=S)SSC(=S)N(CC)CC` [Disulfuram, tetraalkylthiuram disulfide]: the Steady-state serum levels result in data set [2] is “approximately 1.3 μM”. Besides, the LD50 in data set [3] is reported as 8.6 g/kg.

Turning to `C[C@]12CC[C@H](O)C[C@@H]1CC[C@@H]1[C@@H]2CC[C@]2(C)C(=O)[C@H](Br)C[C@@H]12` [16α-bromoepiandrosterone], in data set [1], the “inhibition of mammalian G6PDH” value is given as “more potent inhibitor of mammalian G6PDH than DHEA”.
